According to ChEMBL document CHEMBL4000183, “Phenylpropanoids from Juglans mandshurica exhibit cytotoxicities on liver cancer cell lines through apoptosis induction” (Bioorg Med Chem Lett, 2017):
pIC50: −log10 of the molar value. Activity calls are given as the source filed them. No cut-off for these calls is given here.

Tests used:
[1] = system: Hep 3B2; experiment: Cytotoxic activity against human Hep3B cells assessed as growth inhibition after 48 hrs by MTT assay; type: functional, cell-based
[2] = system: HepG2; experiment: Cytotoxic activity against human HepG2 cells assessed as growth inhibition after 48 hrs by MTT assay; type: functional, cell-based
[3] = system: HepG2; experiment: Cytotoxic activity against human HepG2 cells assessed as growth inhibition at 25 uM after 48 hrs by MTT assay; type: functional; details: HepG2, 48 h, read-out: GI
[4] = system: Hep 3B2; experiment: Induction of apoptosis in human Hep3B cells assessed as decrease in Bcl-2 level at 70 uM after 48 hrs by Western blot analysis; type: functional, cell-based
[5] = system: Hep 3B2; experiment: Induction of apoptosis in human Hep3B cells assessed as nuclear fragmentation at 70 uM after 48 hrs by AO staining-based phase contrast microscopic analysis; type: functional, cell-based
[6] = system: HepG2; experiment: Induction of apoptosis in human HepG2 cells assessed as increase in cleaved PARP level at 60 uM after 48 hrs by Western blot analysis; type: functional, cell-based
[7] = system: Hep 3B2; experiment: Induction of apoptosis in human Hep3B cells assessed as chromatin condensation at 70 uM after 48 hrs by AO staining-based phase contrast microscopic analysis; type: functional, cell-based
[8] = system: HepG2; experiment: Cytotoxic activity against human HepG2 cells assessed as growth inhibition at 12.5 uM after 48 hrs by MTT assay; type: functional; details: HepG2, 48 h, read-out: GI
[9] = system: Hep 3B2; experiment: Induction of apoptosis in human Hep3B cells assessed as increase in cleaved-caspase 9 level at 70 uM after 48 hrs by Western blot analysis; type: functional, cell-based
[10] = system: HepG2; experiment: Induction of apoptosis in human HepG2 cells assessed as decrease in pro-caspase 7 level at 60 uM after 48 hrs by Western blot analysis; type: functional, cell-based
[11] = system: HepG2; experiment: Induction of apoptosis in human HepG2 cells assessed as increase in cleaved-caspase 9 level at 60 uM after 48 hrs by Western blot analysis; type: functional, cell-based
[12] = system: Hep 3B2; experiment: Cytotoxic activity against human Hep3B cells assessed as growth inhibition at 12.5 uM after 48 hrs by MTT assay; type: functional; details: read-out: GI
[13] = system: HepG2; experiment: Induction of apoptosis in human HepG2 cells assessed as decrease in PARP level at 60 uM after 48 hrs by Western blot analysis; type: functional, cell-based
[14] = system: Hep 3B2; experiment: Cytotoxic activity against human Hep3B cells assessed as growth inhibition at 100 uM after 48 hrs by MTT assay; type: functional; details: read-out: GI
[15] = system: Hep 3B2; experiment: Induction of apoptosis in human Hep3B cells assessed as decrease in pro-caspase 7 level at 70 uM after 48 hrs by Western blot analysis; type: functional, cell-based
[16] = system: HepG2; experiment: Cytotoxic activity against human HepG2 cells assessed as growth inhibition at 6.25 uM after 48 hrs by MTT assay; type: functional; details: HepG2, 48 h, read-out: GI
[17] = system: HepG2; experiment: Cytotoxic activity against human HepG2 cells assessed as growth inhibition at 100 uM after 48 hrs by MTT assay; type: functional; details: HepG2, 48 h, read-out: GI
[18] = system: HepG2; experiment: Induction of apoptosis in human HepG2 cells assessed as decrease in Bcl-2 level at 60 uM after 48 hrs by Western blot analysis; type: functional, cell-based
[19] = system: Hep 3B2; experiment: Induction of apoptosis in human Hep3B cells assessed as decrease in pro-caspase 9 level at 70 uM after 48 hrs by Western blot analysis; type: functional, cell-based
[20] = system: HepG2; experiment: Induction of apoptosis in human HepG2 cells assessed as formation of apoptotic bodies at 60 uM after 48 hrs by AO staining-based phase contrast microscopic analysis; type: functional, cell-based
[21] = system: Hep 3B2; experiment: Cytotoxic activity against human Hep3B cells assessed as growth inhibition at 50 uM after 48 hrs by MTT assay; type: functional; details: read-out: GI
[22] = system: Hep 3B2; experiment: Induction of apoptosis in human Hep3B cells assessed as increase in cleaved-caspase 7 level at 70 uM after 48 hrs by Western blot analysis; type: functional, cell-based
[23] = system: Hep 3B2; experiment: Induction of apoptosis in human Hep3B cells assessed as increase in cleaved PARP level at 70 uM after 48 hrs by Western blot analysis; type: functional, cell-based
[24] = system: HepG2; experiment: Induction of apoptosis in human HepG2 cells assessed as decrease in pro-caspase 9 level at 60 uM after 48 hrs by Western blot analysis; type: functional, cell-based
[25] = system: HepG2; experiment: Induction of apoptosis in human HepG2 cells assessed as increase in cleaved-caspase 7 level at 60 uM after 48 hrs by Western blot analysis; type: functional, cell-based
[26] = system: HepG2; experiment: Cytotoxic activity against human HepG2 cells assessed as growth inhibition at 50 uM after 48 hrs by MTT assay; type: functional; details: HepG2, 48 h, read-out: GI
[27] = system: HepG2; experiment: Induction of apoptosis in human HepG2 cells assessed as nuclear fragmentation at 60 uM after 48 hrs by AO staining-based phase contrast microscopic analysis; type: functional, cell-based
[28] = system: Hep 3B2; experiment: Induction of apoptosis in human Hep3B cells assessed as cell shrinkage at 70 uM after 48 hrs by AO staining-based phase contrast microscopic analysis; type: functional
[29] = system: HepG2; experiment: Induction of apoptosis in human HepG2 cells assessed as increase in Bax level at 60 uM after 48 hrs by Western blot analysis; type: functional, cell-based
[30] = system: HepG2; experiment: Induction of apoptosis in human HepG2 cells assessed as chromatin condensation at 60 uM after 48 hrs by AO staining-based phase contrast microscopic analysis; type: functional, cell-based
[31] = system: Hep 3B2; experiment: Induction of apoptosis in human Hep3B cells assessed as increase in Bax level at 70 uM after 48 hrs by Western blot analysis; type: functional, cell-based
[32] = system: Hep 3B2; experiment: Cytotoxic activity against human Hep3B cells assessed as growth inhibition at 6.25 uM after 48 hrs by MTT assay; type: functional; details: read-out: GI
[33] = system: Hep 3B2; experiment: Induction of apoptosis in human Hep3B cells assessed as decrease in PARP level at 70 uM after 48 hrs by Western blot analysis; type: functional, cell-based
[34] = system: Hep 3B2; experiment: Cytotoxic activity against human Hep3B cells assessed as growth inhibition at 25 uM after 48 hrs by MTT assay; type: functional; details: read-out: GI

CC(CO)CCOc1ccc(/C=C/CO)cc1 (centres undefined)
growth inhibition (GI) [1]: 7.75% | growth inhibition (GI) [2]: 9.26%

COC(=O)/C=C/c1ccc(OC/C=C(\C)CO)cc1
growth inhibition (GI) [1]: 26.16% | growth inhibition (GI) [2]: 86.42%

CC(CO)CCOc1ccc(/C=C/C=O)cc1 (centres undefined)
inhibition of growth at 25 µM [3]: 14.1% | Activity [4]: Active | Activity [5]: Active | Activity [6]: Active | Activity [7]: Active | growth inhibition (GI) [1]: 95.08% | pIC50 ([1]; Homo sapiens, Hep3B, 48 h): 4.16 | inhibition of growth at 12.5 µM [8]: 0.24% | Activity [9]: Active | growth inhibition (GI) [2]: 83.9% | pIC50 ([2]; Homo sapiens, HepG2, 48 h): 4.23 | Activity [10]: Active | Activity [11]: Active | inhibition of growth at 12.5 µM [12]: -2.42% | Activity [13]: Active | inhibition of growth at 100 µM [14]: 85.8% | Activity [15]: Active | inhibition of growth at 6.25 µM [16]: 6.6% | inhibition of growth at 100 µM [17]: 80% | Activity [18]: Active | Activity [19]: Active | Activity [20]: Active | inhibition of growth at 50 µM [21]: 28.9% | Activity [22]: Active | Activity [23]: Active | Activity [24]: Active | Activity [25]: Active | inhibition of growth at 50 µM [26]: 57% | Activity [27]: Active | Activity [28]: Active | Activity [29]: Active | Activity [30]: Active | Activity [31]: Active | inhibition of growth at 6.25 µM [32]: -4.07% | Activity [33]: Active | inhibition of growth at 25 µM [34]: 0.48%

COC(=O)/C=C/c1ccc(OCCC(C)CO)cc1 (centres undefined)
growth inhibition (GI) [1]: 14.7% | growth inhibition (GI) [2]: 39.48%

CC(/C=C\Oc1ccc(/C=C/CO)cc1)CO (centres undefined)
growth inhibition (GI) [1]: -15.72% | growth inhibition (GI) [2]: 7.81%
